Results: ChEMBL document CHEMBL1201862, “PubChem BioAssay data set” (2004)
Activity calls are given as the source filed them.

Experiments:
[1] = Luminescence Cell-Based/Microorganism Confirmation at Dose of Inhibitors of Trypanosoma cruzi Infection. [Related pubchem assays: 1885, 1968 ]; format: functional
[2] = Trypanosoma cruzi growth suppression in host cells – NIH3T3 host cells, beta-gal luminescence, confirmation (AID 2044); format: functional, cell-based;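 further: intracellular parasites grown in NIH/3T3 mouse fibroblasts as host cells; luminescent beta-galactosidase reporter signal from transgenic T. cruzi replicating inside host cells; inhibitors lower the luminescence signal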
[3] = Luminescence Cell-Based Secondary HTS screen to identify cytotoxic compounds of NIH3T3 cells. [Related pubchem assays: 1885, 1968 ]; format: functional
[4] = NIH3T3 cell viability loss – ATP luminescence, mouse fibroblasts, counter-screen, dose response (AID 2010); format: functional, cell-based;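 further: cells exposed to compound for about 90 hours before reading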
[5] = T. cruzi infection blockers in NIH3T3 cells – beta-gal luminescence, NIH3T3 host cells, confirmation (AID 2630); format: functional, cell-based; details: Mus musculus
[6] = T. cruzi growth inhibition in host cells, dose response, cell-based, plate reader, dry powder, set 2 (AID 652275); format: functional
[7] = anti-trypanosomal activity in BESM host cells – imaging, CA-I/72 strain, bovine embryo skeletal muscle, dry powder, dose response (AID 651885); format: functional, cell-based
[8] = cells
[9] = biological target: Large T antigen (Simian virus 40, UniProt P03070); format: functional, Betapolyomavirus macacae;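 further: Confirmatory-stage PubChem screen for compounds that inhibit SV40 T antigen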
Chain of Large T antigen (P03070 whole entry): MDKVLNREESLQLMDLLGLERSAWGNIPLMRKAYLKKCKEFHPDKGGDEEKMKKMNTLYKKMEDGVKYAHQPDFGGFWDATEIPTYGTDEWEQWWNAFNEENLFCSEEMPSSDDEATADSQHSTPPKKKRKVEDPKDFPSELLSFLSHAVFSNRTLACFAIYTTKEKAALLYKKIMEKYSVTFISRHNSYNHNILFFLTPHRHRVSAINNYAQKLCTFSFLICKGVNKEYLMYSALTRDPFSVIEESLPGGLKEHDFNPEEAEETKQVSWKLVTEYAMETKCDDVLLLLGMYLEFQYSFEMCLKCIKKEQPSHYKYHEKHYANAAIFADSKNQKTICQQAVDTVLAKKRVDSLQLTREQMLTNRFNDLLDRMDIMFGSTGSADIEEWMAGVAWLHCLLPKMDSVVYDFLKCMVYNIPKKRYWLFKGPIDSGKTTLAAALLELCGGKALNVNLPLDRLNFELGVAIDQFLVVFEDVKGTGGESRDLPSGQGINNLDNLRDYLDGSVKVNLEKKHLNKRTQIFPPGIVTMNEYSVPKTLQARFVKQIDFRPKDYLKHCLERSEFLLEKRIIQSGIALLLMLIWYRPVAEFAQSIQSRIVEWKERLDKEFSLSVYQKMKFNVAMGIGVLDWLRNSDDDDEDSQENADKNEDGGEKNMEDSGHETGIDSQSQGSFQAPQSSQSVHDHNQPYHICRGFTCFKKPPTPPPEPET

[10] = biological target: T1, Mannose-6-phosphate isomerase (Homo sapiens, UniProt P34949); test: MPI enzyme activity inhibition – biochemical, fluorescence intensity, coupled assay, primary screen (AID 1209)
T1 sequence (P34949 whole entry): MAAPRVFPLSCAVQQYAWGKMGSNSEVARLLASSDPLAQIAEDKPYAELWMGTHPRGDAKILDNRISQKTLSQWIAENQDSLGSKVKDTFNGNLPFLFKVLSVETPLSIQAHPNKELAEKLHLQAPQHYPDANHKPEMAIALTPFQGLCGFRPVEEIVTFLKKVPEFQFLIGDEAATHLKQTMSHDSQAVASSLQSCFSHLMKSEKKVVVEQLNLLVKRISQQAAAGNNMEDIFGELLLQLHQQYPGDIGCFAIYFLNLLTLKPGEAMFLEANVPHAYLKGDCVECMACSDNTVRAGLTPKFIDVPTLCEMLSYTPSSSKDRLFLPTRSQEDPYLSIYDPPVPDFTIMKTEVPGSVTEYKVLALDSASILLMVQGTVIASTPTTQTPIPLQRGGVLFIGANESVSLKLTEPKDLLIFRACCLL

[11] = biological target: T1, Mannose-6-phosphate isomerase; test: MPI inhibition at elevated mannose 6-phosphate – biochemical, fluorescence intensity, high mannose 6-phosphate, primary screen (AID 1220)
[12] = biological target: FAD-linked sulfhydryl oxidase ALR (Homo sapiens, UniProt P55789); test: ALR-catalysed DTT oxidation blockers – biochemical, H2O2 detection, luminescence, cherry-pick, dose response (AID 493248)
Chain of FAD-linked sulfhydryl oxidase ALR (P55789 whole entry): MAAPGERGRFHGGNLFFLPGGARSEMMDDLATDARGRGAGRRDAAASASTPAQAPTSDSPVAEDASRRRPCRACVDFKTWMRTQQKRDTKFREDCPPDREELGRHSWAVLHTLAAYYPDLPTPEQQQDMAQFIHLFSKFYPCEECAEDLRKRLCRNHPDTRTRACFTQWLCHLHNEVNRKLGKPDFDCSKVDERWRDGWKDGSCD

[13] = biological target: Induced myeloid leukemia cell differentiation protein Mcl-1 (Homo sapiens, UniProt Q07820); test: blockers of MCL1 binding to BIM peptide – biochemical, fluorescence polarization, BIM-BH3 peptide, 1536-well, dose response (AID 2217)
Chain of Induced myeloid leukemia cell differentiation protein Mcl-1 (Q07820 whole entry): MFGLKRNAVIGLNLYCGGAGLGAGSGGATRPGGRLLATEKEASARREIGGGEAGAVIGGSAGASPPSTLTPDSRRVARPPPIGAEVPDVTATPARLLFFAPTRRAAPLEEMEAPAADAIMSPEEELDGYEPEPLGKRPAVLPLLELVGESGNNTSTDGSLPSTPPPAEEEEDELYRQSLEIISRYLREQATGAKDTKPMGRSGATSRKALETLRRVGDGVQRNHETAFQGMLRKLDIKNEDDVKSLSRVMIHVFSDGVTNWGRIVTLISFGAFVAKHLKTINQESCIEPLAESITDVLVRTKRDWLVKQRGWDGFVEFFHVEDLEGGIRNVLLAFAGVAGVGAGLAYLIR

[14] = biological target: Bcl-2-like protein 1 (Homo sapiens, UniProt Q07817); test: blockers of BCLXL peptide binding – biochemical, fluorescence polarization, 1536-well, selectivity assay for MCL1 inhibitor project, dose response (AID 2218)
Chain of Bcl-2-like protein 1 (Q07817 whole entry): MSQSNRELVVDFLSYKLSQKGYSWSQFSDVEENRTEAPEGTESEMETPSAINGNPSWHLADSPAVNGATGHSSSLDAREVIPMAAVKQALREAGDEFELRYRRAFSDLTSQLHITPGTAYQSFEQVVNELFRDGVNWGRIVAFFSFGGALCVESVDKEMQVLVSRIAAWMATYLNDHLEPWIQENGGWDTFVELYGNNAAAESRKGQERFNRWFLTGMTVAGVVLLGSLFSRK

[15] = biological target: T2, Endoribonuclease toxin MazF (Escherichia coli K-12, UniProt P0AE70); test: activation of MazEF endoribonuclease cleavage – biochemical, fluorescence, single-stranded RNA substrate, uHTS hits, dose response (AID 588481); format: functional
T2 sequence (P0AE70 whole entry): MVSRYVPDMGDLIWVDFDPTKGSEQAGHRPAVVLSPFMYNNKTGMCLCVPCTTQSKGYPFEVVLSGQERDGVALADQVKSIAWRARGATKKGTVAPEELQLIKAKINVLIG

[16] = biological target: T2, Endoribonuclease toxin MazF; test: substrate-only fluorescence increase artefacts – biochemical, single-stranded RNase substrate, counter-screen for MazEF activator project, dose response (AID 588502); format: functional
[17] = biological target: Albumin (Bos taurus, UniProt P02769); test: Counterscreen for inhibitors of T-cell receptor (TCR)-CD3 interaction: Fluorescence-based biochemical high throughput dose response assay to identify inhibitors of T-cell receptor (TCR)-CD3 interaction using a TAMRA-labeled BSA probe.; format: functional
Chain of Albumin (P02769 whole entry): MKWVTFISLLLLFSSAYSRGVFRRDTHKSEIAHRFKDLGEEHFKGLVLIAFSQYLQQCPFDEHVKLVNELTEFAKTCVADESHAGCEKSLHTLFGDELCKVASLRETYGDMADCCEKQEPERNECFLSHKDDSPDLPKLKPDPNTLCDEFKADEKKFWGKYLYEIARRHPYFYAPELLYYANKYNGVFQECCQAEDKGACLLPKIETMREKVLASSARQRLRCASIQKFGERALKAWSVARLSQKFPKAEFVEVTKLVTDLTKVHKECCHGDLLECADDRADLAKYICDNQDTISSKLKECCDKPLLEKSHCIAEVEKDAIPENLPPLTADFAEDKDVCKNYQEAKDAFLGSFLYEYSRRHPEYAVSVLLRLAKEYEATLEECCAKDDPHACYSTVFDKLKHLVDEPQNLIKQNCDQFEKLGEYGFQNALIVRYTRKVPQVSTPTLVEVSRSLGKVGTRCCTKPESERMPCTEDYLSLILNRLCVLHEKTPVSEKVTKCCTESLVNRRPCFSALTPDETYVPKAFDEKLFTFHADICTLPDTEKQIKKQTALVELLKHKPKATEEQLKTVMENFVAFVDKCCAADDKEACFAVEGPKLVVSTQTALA

[18] = biological target: Ubiquitin carboxyl-terminal hydrolase BAP1 (Homo sapiens, UniProt Q92560); test: inhibition of BAP1 ubiquitin hydrolase activity – biochemical, dose response (AID 714); format: functional
Chain of Ubiquitin carboxyl-terminal hydrolase BAP1 (Q92560 whole entry): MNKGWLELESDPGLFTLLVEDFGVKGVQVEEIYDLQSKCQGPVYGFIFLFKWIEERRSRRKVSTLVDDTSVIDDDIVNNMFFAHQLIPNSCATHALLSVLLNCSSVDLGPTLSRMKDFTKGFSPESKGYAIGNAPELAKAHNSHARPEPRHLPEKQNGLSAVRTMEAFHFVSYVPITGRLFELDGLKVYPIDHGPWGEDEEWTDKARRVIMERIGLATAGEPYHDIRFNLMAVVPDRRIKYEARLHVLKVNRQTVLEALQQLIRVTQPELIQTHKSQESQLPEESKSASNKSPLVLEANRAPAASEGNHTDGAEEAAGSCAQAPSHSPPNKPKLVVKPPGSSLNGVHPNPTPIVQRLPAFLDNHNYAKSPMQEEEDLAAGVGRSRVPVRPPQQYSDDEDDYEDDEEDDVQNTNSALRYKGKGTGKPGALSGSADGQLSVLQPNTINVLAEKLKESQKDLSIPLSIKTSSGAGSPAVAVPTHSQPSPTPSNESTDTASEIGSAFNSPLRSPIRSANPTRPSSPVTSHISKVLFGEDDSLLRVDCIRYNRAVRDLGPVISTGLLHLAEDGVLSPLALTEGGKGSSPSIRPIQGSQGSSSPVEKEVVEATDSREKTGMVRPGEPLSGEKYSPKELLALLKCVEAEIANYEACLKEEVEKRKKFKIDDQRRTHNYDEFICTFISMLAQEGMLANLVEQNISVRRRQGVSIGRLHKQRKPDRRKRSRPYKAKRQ

[19] = biological target: Sphingosine 1-phosphate receptor 2 (Homo sapiens, UniProt O95136); test: Dose Response Cell Based Assay for Agonists of the S1P2 Receptor of Purchased Analogues. [Related pubchem assays: 729, 843, 854, 736 ]; format: functional
Chain of Sphingosine 1-phosphate receptor 2 (O95136 whole entry): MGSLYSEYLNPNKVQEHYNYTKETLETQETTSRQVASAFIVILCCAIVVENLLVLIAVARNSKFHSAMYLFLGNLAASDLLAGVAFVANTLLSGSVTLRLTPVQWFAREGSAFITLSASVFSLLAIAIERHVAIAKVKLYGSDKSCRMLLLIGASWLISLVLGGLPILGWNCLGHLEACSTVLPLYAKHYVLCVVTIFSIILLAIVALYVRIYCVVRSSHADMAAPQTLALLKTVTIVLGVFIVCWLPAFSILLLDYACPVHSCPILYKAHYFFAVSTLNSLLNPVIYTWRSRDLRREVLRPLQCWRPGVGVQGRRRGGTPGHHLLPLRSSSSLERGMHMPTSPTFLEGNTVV

[20] = M. tuberculosis growth inhibition, HTS (AID 449762); format: functional
[21] = biological target: T3, Oxysterols receptor LXR-beta (Homo sapiens, UniProt P55055); format: functional, cell-based
T3 sequence (P55055 whole entry): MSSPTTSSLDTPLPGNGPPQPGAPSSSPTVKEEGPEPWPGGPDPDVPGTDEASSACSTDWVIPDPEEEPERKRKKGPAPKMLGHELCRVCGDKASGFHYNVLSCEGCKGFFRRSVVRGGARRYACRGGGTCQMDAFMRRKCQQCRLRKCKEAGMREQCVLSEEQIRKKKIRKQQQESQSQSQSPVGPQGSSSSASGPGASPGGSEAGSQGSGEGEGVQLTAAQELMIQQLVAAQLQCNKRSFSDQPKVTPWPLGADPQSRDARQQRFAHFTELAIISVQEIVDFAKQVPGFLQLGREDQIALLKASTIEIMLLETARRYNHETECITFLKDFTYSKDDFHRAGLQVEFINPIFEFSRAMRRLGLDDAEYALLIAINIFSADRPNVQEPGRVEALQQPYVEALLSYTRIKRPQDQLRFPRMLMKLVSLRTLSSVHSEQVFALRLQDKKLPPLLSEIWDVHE

[22] = biological target: T3, Oxysterols receptor LXR-beta; format: functional, cell-based; remark: listed apart in the source
[23] = rise of 2N DNA cells, HeLa – IC50, dose response (AID 1117349); format: functional, cell-based
[24] = rise of 4N DNA cells, HeLa – IC50, dose response (AID 1117351); format: functional, cell-based
[25] = cells; remark: listed apart in the source

SMILES: CCCn1ncc(CN2CCCC(C(=O)c3cccc(OC(C)C)c3)C2)c1C (stereo not given)
- EC50 [1]: 0.047 µM (active)
- EC50 [2]: < 0.1 µM (active)
- EC50 [3]: > 195 µM (not active)
- EC50 [4]: > 60 µM (not active)
- EC50 [5]: 0.047 µM (active)
- AC50 [6]: 0.0589 µM (active)
- IC50 [7]: > 20 µM (inactive)
- EC50 [8]: 0.054 µM (active)

SMILES: CCn1c(=O)n(CC)c2cc(N)ccc21
- IC50 [9]: 14 µM (active)
- IC50 [10]: > 50 µM (not active)
- IC50 [11]: > 50 µM (not active)
- AC50 [12]: 0.754 µM (active)

SMILES: O=c1cc(-c2ccc(O)c(O)c2)oc2c1ccc1ccccc12
- IC50 [13]: 23.8 µM (not active)
- IC50 [14]: > 109 µM (not active)
- EC50 [15]: > 99 µM (inactive)
- EC50 [16]: > 99 µM (inactive)
- IC50 [17]: > 94.1 µM (inactive)

SMILES: O=C(CSc1nc2c(c(=O)n1-c1ccc(Cl)cc1)SCC2)Nc1ccc2c(c1)OCCO2
- IC50 [18]: 38.6 µM (not active)

SMILES: Cc1cc(C(=O)CN(C)CC(=O)NC(C)(C)C)c(C)n1Cc1ccccc1
- EC50 [19]: > 30 µM (not active)

SMILES: CCCNC(=O)NC(=O)COc1ccc2oc3ccccc3c2c1
- IC50 [20]: > 100 µM (active)

SMILES: O=c1[nH]c(=O)n([C@H]2C[C@H](O)[C@@H](CO)O2)cc1Br [BROXURIDINE]
- EC50 [21]: > 67.5 µM (inactive)
- EC50 [22]: > 67.6 µM (inactive)
- IC50 [23]: > 10 µM (inactive)
- IC50 [24]: > 10 µM (inactive)
- EC50 [25]: > 67.5 µM (inactive)
